In patent US20230087118A1, “IMIDAZO[1,2-a][sequence] DERIVATIVES AND THEIR USE IN THE TREATMENT OF DISEASE” (priority 2019, published 2023):
Structures can show the parent of a compound that is named as a salt.

The compounds below were run against T1, IRAK4 (Homo sapiens, UniProt Q9NWZ3) (assay: biochemical). Conditions: not given.
T1 sequence (Q9NWZ3 1-460): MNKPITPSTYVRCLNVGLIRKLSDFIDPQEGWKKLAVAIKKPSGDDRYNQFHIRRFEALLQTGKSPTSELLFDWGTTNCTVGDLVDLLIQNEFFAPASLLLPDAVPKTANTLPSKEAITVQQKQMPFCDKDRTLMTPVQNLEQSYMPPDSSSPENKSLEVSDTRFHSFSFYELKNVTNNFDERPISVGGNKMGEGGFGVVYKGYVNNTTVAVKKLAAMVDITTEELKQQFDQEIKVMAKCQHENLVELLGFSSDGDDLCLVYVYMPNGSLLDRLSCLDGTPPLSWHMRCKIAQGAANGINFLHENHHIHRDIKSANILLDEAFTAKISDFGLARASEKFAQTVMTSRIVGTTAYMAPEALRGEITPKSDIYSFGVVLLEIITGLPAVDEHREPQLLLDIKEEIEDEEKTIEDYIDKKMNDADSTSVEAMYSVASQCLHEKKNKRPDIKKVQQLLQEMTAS

| Structure (SMILES) | IC50 [µM] |
| --- | --- |
| Cn1ccc(NC(=O)c2cn3cc([C@]45CC[C@](C)(C4)OC5)nc3cc2OC2CCC2)n1 (single isomer, unassigned) [Example 611] | 0.0013 |
| CC(C)Oc1nc2nc([C@@]34CC[C@@](C)(C3)OC4)cn2cc1C(=O)Nc1cccc(C(F)F)n1 (single isomer, unassigned) [Example 576] | 0.0002 |
| COc1cc2nc(C3CCOCC3)cn2cc1C(=O)Nc1cnn(C)c1C1CC1 [Example 186] | 0.312 |
| CC12CC(c3cn4cc(C(=O)Nc5cccn(C(F)F)c5=O)c(OC5COC5)cc4n3)(CO1)C2 [Example 441, N-(1-(difluoromethyl)-2-oxo-1,2-dihydropyridin-3-yl)-2-(1-methyl-2-oxabicyclo[2.1.1]hexan-4-yl)-7-(oxetan-3-yloxy)imidazo[1,2-a]pyridine-6-carboxamide] | 0.0034 |
| CC(C)Oc1cc2nc(C34CCC(C)(C3)OC4)cn2cc1C(=O)Nc1cccc(C(F)F)c1 (centres unmarked) [Example 514, N-(3-(difluoromethyl)phenyl)-7-isopropoxy-2-(1-methyl-2-oxabicyclo[2.2.1]heptan-4-yl)imidazo[1,2-a]pyridine-6-carboxamide] | 0.0005 |
| CC(C)Oc1cc2nc(C34COC(C3)C4)cn2cc1C(=O)Nc1cccn(C(F)F)c1=O [Example 547, 2-(2-Oxabicyclo[2.1.1]hexan-4-yl)-N-(1-(difluoromethyl)-2-oxo-1,2-dihydropyridin-3-yl)-7-isopropoxyimidazo[1,2-a]pyridine-6-carboxamide] | 0.0008 |
| CC1(C)CC(Oc2cc3nc(C4CC4)cn3cc2C(=O)Nc2cccn(C(F)F)c2=O)C1 [Example 460, 2-Cyclopropyl-N-(1-(difluoromethyl)-2-oxo-1,2-dihydropyridin-3-yl)-7-(3,3-dimethylcyclobutoxy)imidazo[1,2-a]pyridine-6-carboxamide] | 0.0099 |
| CC(C)Oc1nc2nc(C34COC(CF)(C3)C4)cn2cc1C(=O)Nc1cccn(C(F)F)c1=O [Example 381, N-(1-(difluoromethyl)-2-oxo-1,2-dihydropyridin-3-yl)-2-(1-(fluoromethyl)-2-oxabicyclo[2.1.1]hexan-4-yl)-7-isopropoxyimidazo[1,2-a]pyrimidine-6-carboxamide] | 0.0004 |
| CC(C)Oc1cc2nc([C@]34CC[C@](C)(C3)OC4)cn2cc1C(=O)Nc1cccn(C)c1=O (single isomer, unassigned) [Example 621] | 0.0014 |
| CC12CCC(c3cn4cc(C(=O)Nc5cccnc5OC(F)F)c(OC5CCC5)cc4n3)(CO1)C2 (centres unmarked) [Example 536, 7-Cyclobutoxy-N-(2-(difluoromethoxy)pyridin-3-yl)-2-(1-methyl-2-oxabicyclo[2.2.1]heptan-4-yl)imidazo[1,2-a]pyridine-6-carboxamide] | 0.0016 |
| CC(C)Oc1nc2nc(C34COC(C3)C4)cn2cc1C(=O)Nc1cnn2cccnc12 [Example 430, 2-(2-Oxabicyclo[2.1.1]hexan-4-yl)-7-isopropoxy-N-(pyrazolo[1,5-a]pyrimidin-3-yl)imidazo[1,2-a]pyrimidine-6-carboxamide] | 0.0027 |
| COc1ncccc1NC(=O)c1cn2cc(C3CC3)nc2nc1OC(C)C [Example 283, 2-Cyclopropyl-7-isopropoxy-N-(2-methoxypyridin-3-yl)imidazo[1,2-a]pyrimidine-6-carboxamide] | 0.0025 |
| CC(C)Oc1cc2nc(C3CC3)cn2cc1C(=O)Nc1cccc(C#N)n1 [Example 638, N-(6-cyanopyridin-2-yl)-2-cyclopropyl-7-isopropoxyimidazo[1,2-a]pyridine-6-carboxamide] | 0.0045 |
| Cn1ccc(NC(=O)c2cn3cc(C45COC(C)(C4)C5)nc3cc2OC2CC3(CC3)C2)n1 [Example 550] | 0.002 |
| CCOc1cc(C(=O)Nc2cccc(C(F)F)n2)cn2cc([C@H]3CCCOC3)nc12 (single isomer, unassigned) [Example 55] | 0.0135 |
| CC(C)Oc1c(C(=O)Nc2cnn3cccnc23)cn2cc(C34COC(C)(C3)C4)nc2c1F [Example 302, 8-Fluoro-7-isopropoxy-2-(1-methyl-2-oxabicyclo[2.1.1]hexan-4-yl)-N-(pyrazolo[1,5-a]pyrimidin-3-yl)imidazo[1,2-a]pyridine-6-carboxamide] | 0.0077 |
| CC(C)Oc1cc2nc(C34COC(C)(C3)C4)c(Cl)n2cc1C(=O)Nc1cccc(C(F)F)n1 [Example 229, 3-Chloro-N-(6-(difluoromethyl)pyridin-2-yl)-7-isopropoxy-2-(1-methyl-2-oxabicyclo[2.1.1]hexan-4-yl)imidazo[1,2-a]pyridine-6-carboxamide] | 0.0393 |
| CCOc1nc2nc(C34CCC(C)(CC3)OC4)cn2cc1C(=O)Nc1ccn(C)n1 [Example 423, 7-Ethoxy-N-(1-methyl-1H-pyrazol-3-yl)-2-(1-methyl-2-oxabicyclo[2.2.2]octan-4-yl)imidazo[1,2-a]pyrimidine-6-carboxamide] | 0.0054 |
| COc1cc2nc(C3CCOCC3)cn2cc1C(=O)Nc1csnc1C [Example 108] | 0.0669 |
| COc1cccc(NC(=O)c2cn3cc(C4CCOCC4)nc3cc2OC(C)C)n1 [Example 93, 7-isopropoxy-N-(6-methoxypyridin-2-yl)-2-(tetrahydro-2H-pyran-4-yl)imidazo[1,2-a]pyridine-6-carboxamide] | 0.0002 |
| COc1nc(C(=O)Nc2cccc(C(F)(F)F)n2)cn2cc(C[C@H]3CCOC3)nc12 (single isomer, unassigned) [Example 71] | 0.0311 |

Same assay, conditions: IRAK4 Biochemical Assay (1 mM ATP, 2 h) IC50 (μM), 1 mM ATP, 2 h, 100 pM IRAK4

| Structure (SMILES) | IC50 [µM] |
| --- | --- |
| COc1ncccc1NC(=O)c1cn2cc(C34CC(OC)(C3)C4)nc2cc1OC(C)C [Example 252, 7-Isopropoxy-2-(3-methoxybicyclo[1.1.1]pentan-1-yl)-N-(2-methoxypyridin-3-yl)imidazo[1,2-a]pyridine-6-carboxamide trifluoroacetate] | 0.0004 |
| CCc1cccc(NC(=O)c2cn3cc(C4CC(OC)C4)nc3cc2OC)n1 (centres unmarked) [Example 61] | 0.0351 |
| O=C(Nc1cccc(C(F)F)n1)c1cn2cc(C3CC3)nc2cc1OC1CC(F)(F)C1 [Example 476, 2-Cyclopropyl-7-(3,3-difluorocyclobutoxy)-N-(6-(difluoromethyl)pyridin-2-yl)imidazo[1,2-a]pyridine-6-carboxamide] | 0.0088 |
| COc1cc2nc(C34CC(F)(C3)C4)cn2cc1C(=O)Nc1ccccn1 [Example 3] | 0.217 |
| CC(C)Oc1nc2nc(C34COC(C)(C3)C4)cn2cc1C(=O)Nc1cnn2cc(F)cnc12 [Example 398, N-(6-fluoropyrazolo[1,5-a]pyrimidin-3-yl)-7-isopropoxy-2-(1-methyl-2-oxabicyclo[2.1.1]hexan-4-yl)imidazo[1,2-a]pyrimidine-6-carboxamide] | 0.0002 |
| COc1cccc(NC(=O)c2cn3cc(C4CCOCC4)nc3c(OC)n2)n1 [Example 77] | 0.074 |
| O=C(Nc1cccn(C(F)F)c1=O)c1cn2cc(C3CC3)nc2cc1OC1CC(C(F)F)C1 (centres unmarked) [Example 461, 2-Cyclopropyl-N-(1-(difluoromethyl)-2-oxo-1,2-dihydropyridin-3-yl)-7-(3-(difluoromethyl)cyclobutoxy)imidazo[1,2-a]pyridine-6-carboxamide] | 0.0072 |
| O=C(Nc1cccc(C(F)F)n1)c1cc(OC(F)F)c2nc(C3CCOCC3)cn2c1 [Example 63, 8-(Difluoromethoxy)-N-(6-(difluoromethyl)pyridin-2-yl)-2-(tetrahydro-2H-pyran-4-yl)imidazo[1,2-a]pyridine-6-carboxamide trifluoroacetate] | 0.0078 |
